In PubChem BioAssay (NCI):
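All cell lines were grown in 96-well plates and treated with compound for 48 hours. Here, GI50 denotes the concentration required for 50% inhibition of growth. TGI is the concentration that stops growth completely.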

Assays:
Assay in all cases: NCI-60 cell line screen, 48 h; in the data active = GI50 below about 0.43 µM; inactive = the rest
[1] = system: 786-0 renal
[2] = system: A498 renal
[3] = system: A549 NSCLC
[4] = system: ACHN renal
[5] = system: BT-549 breast
[6] = system: CAKI-1 renal
[7] = system: CCRF-CEM leukemia
[8] = system: COLO 205 colon
[9] = system: DU-145 prostate
[10] = system: EKVX NSCLC
[11] = system: HCC-2998 colon
[12] = system: HCT-116 colon
[13] = system: HCT-15 colon
[14] = system: HL-60(TB) leukemia
[15] = system: HOP-62 NSCLC
[16] = system: HOP-92 NSCLC
[17] = system: HS 578T breast
[18] = system: HT29 colon
[19] = system: IGROV1 ovarian
[20] = system: K-562 leukemia
[21] = system: KM12 colon
[22] = system: LOX IMVI melanoma
[23] = system: M14 melanoma
[24] = system: MALME-3M melanoma
[25] = system: MCF7 breast
[26] = system: MDA-MB-231 breast
[27] = system: MDA-MB-435
[28] = system: MOLT-4 leukemia
[29] = system: NCI-H226 lung
[30] = system: NCI-H23 lung
[31] = system: NCI-H460 lung
[32] = system: NCI-H522 lung
[33] = system: NCI/ADR-RES ovarian
[34] = system: OVCAR-3 ovarian
[35] = system: OVCAR-4 ovarian
[36] = system: OVCAR-5 ovarian
[37] = system: OVCAR-8 ovarian
[38] = system: PC-3 prostate
[39] = system: RPMI-8226 leukemia
[40] = system: RXF 393 renal
[41] = system: SF-268 CNS
[42] = system: SF-295 CNS
[43] = system: SF-539 CNS
[44] = system: SK-MEL-2 melanoma
[45] = system: SK-MEL-28 melanoma
[46] = system: SK-MEL-5 melanoma
[47] = system: SK-OV-3 ovarian
[48] = system: SN12C renal
[49] = system: SNB-19 CNS
[50] = system: SNB-75 CNS
[51] = system: SR leukemia
[52] = system: SW-620 colon
[53] = system: T-47D breast
[54] = system: TK-10 renal
[55] = system: U251 CNS
[56] = system: UACC-257 melanoma
[57] = system: UACC-62 melanoma
[58] = system: UO-31 renal

C=CC(=O)N1CCN(c2nc(=O)n(-c3c(C)ccnc3C(C)C)c3nc(-c4c(O)cccc4F)c(F)cc23)[C@@H](C)C1
70 µM: TGI [27]
> 96.3 µM: TGI [38]
> 73.9 µM: TGI [19]
> 78 µM: TGI [44]
> 54.1 µM: TGI [2]
54 µM: TGI [21]
> 74.3 µM: TGI [13]
38.1 µM: TGI [22]
inactive: GI50 [1] 14.7 µM | GI50 [2] 11.8 µM | GI50 [3] > 46.5 µM | GI50 [4] 40.9 µM | GI50 [5] 15.8 µM | GI50 [6] 40.3 µM | GI50 [7] 25.7 µM | GI50 [8] 39.9 µM | GI50 [9] 30.9 µM | GI50 [10] 48.6 µM | GI50 [11] 19.1 µM | GI50 [12] 15.1 µM | GI50 [13] 29.5 µM | GI50 [14] 20.5 µM | GI50 [16] 29.8 µM | GI50 [17] 45.7 µM | GI50 [18] 35.9 µM | GI50 [19] > 44.7 µM | GI50 [20] 23.2 µM | GI50 [21] 23.4 µM | GI50 [22] 16.9 µM | GI50 [23] 17 µM | GI50 [24] 20.8 µM | GI50 [25] 34.1 µM | GI50 [26] 25.4 µM | GI50 [27] 25.1 µM | GI50 [28] 18.7 µM | GI50 [29] 25.4 µM | GI50 [31] 43.4 µM | GI50 [32] 29.8 µM | GI50 [33] > 100 µM | GI50 [34] 30.1 µM | GI50 [35] 35.8 µM | GI50 [36] 62.9 µM | GI50 [37] 30.9 µM | GI50 [38] 31.8 µM | GI50 [39] 18.1 µM | GI50 [40] 17.7 µM | GI50 [41] 35.6 µM | GI50 [42] 44.4 µM | GI50 [43] 23.3 µM | GI50 [44] 31 µM | GI50 [45] > 58.7 µM | GI50 [46] 27.8 µM | GI50 [47] > 77.8 µM | GI50 [48] 38 µM | GI50 [49] 57.8 µM | GI50 [50] 36.1 µM | GI50 [51] 17.3 µM | GI50 [52] 36.8 µM | GI50 [53] 40.9 µM | GI50 [54] 23.8 µM | GI50 [55] 48.7 µM | GI50 [56] > 56.2 µM | GI50 [57] 28.4 µM | GI50 [58] > 62.3 µM
83.1 µM: TGI [7]
71 µM: TGI [28]
59.2 µM: TGI [40]
> 51.3 µM: TGI [5]
active: GI50 [15] < 0.0291 µM
64 µM: TGI [24]
53.8 µM: TGI [14]
98.3 µM: TGI [9]
> 58.8 µM: TGI [16]
> 73.6 µM: TGI [57]
35.9 µM: TGI [11]
> 59.1 µM: TGI [46]
64.2 µM: TGI [43]
> 52.6 µM: TGI [23]
> 77.2 µM: TGI [3]
85.2 µM: TGI [26]
> 66.5 µM: TGI [15]
> 90.9 µM: TGI [39] | TGI [54]
> 91.4 µM: TGI [50]
70.3 µM: TGI [51]
36.3 µM: TGI [1] | TGI [12]
> 85 µM: TGI [20]
> 86 µM: TGI [34]
> 47.2 µM: TGI [30]
> 100 µM: TGI [4] | TGI [6] | TGI [8] | TGI [10] | TGI [17] | TGI [18] | TGI [25] | TGI [29] | TGI [31] | TGI [32] | TGI [33] | TGI [35] | TGI [36] | TGI [37] | TGI [41] | TGI [42] | TGI [45] | TGI [47] | TGI [48] | TGI [49] | TGI [52] | TGI [53] | TGI [55] | TGI [56] | TGI [58]
